# Data published in patent US10154989B2, “Methods of managing graft versus host disease (GvHD) using indole carboxyaldehydes or derivatives thereof” (Emory University, priority 2015, dated 2018).
# “Also recorded” adds a separate entry of the source.
# Key:
# Format in all cases: in vivo
# [1] = test system: GvHD in B10.BR (H2k) mice transplanted with TCD-BM+T cells; test: GvHD model: lethally irradiated B10.BR mice given TCD-BM plus 2×10^6 B6 T cells, daily ICA gavage
# Description: Lethally irradiated B10.BR (H2k) mice were transplanted with 3×10^6 T cell depleted bone marrow cells (TCD-BM) alone or the combination of TCD-BM plus 2×10^6 purified T cells from B6 (H2b) donor mice. Mice received daily gavage with 100 mg/kg or 150 mg/kg ICA or vehicle through day 38 post-transplant. Survival and clinical manifestations of GvHD were monitored through day 62. Histopathology of the gut, cytokines in serum and colon homogenates, intracellular cytokine staining of donor T-cells and bacterial counts in mesenteric lymph nodes (using blood agar plates) were measured in a separate cohort of experimental mice euthanized on day 20. Additionally, a secondary transplant was conducted to test the allo-proliferative capacity (in vivo CFSE dilution assay) and GvHD activity of T-cells from spleens of mice in the TCD-BM+T cells+150 mg/kg ICA group that survived to day 62, compared to B6 T cells, in combination with fresh B6 TCD-BM, in B10.BR recipients.
# They were fed vehicle, 100 mg/kg/day of ICA, or 150 mg/kg/day of ICA by oral gavage. Only 7% of the recipients of TCD-BM+T cells treated with vehicle only survived to day 46.
# [2] = test system: GvHD in B10.BR mice administered TCDBM+T cells; test: GvHD model: 11Gy TBI B10.BR mice given TCDBM plus 3×10^6 allo-MHC mismatched C57Bl/6 T cells
# Description: B6,B10.BR allo MHC mismatched transplants, administering 3×10^6 MHC mismatched donor T cells following myeloablative irradiation with 11Gy that injures gut epithelia. […] ICA (150 mg/kg/d) p.o. QD.
# The gut microbiota contribute to GvHD, yet some Lactobacillus species, which produce ICA and related molecules, mitigate GvHD. Thus, depending on the composition of the microbiota, molecules derived from it might protect from GvHD or exacerbate it. ICA might limit GvHD, by regulating barrier integrity. A myeloablative dose of total body irradiation (TBI) (11Gy) was administered to B10.BR mice, an established murine model of GvHD, in which followed by transplantation of T cell depleted bone marrow (TCDBM) plus/or minus 3×10^6 allo-MHC mismatched T cells all from donor C57Bl/6 mice. Mice administered TCDBM+T cells consistently developed GvHD, increased apoptosis and crypt hyperplasia in the colon (e.g. FIG. 4C), bacterial dissemination to mesenteric lymph nodes (FIG. 4B), increased Th17 responses, and 90% lethality by 30 days (FIG. 4A). […] Thus, ICA protects against GvHD.
# [3] = test system: C. rodentium; test: Infectious colitis: ICA given to mice infected with C. rodentium
# Description: Indoles were assessed in models of epithelial barrier integrity and immune regulation in mammals. Pathogenic E. coli (EPEC and EHEC) and the related mouse pathogen C. rodentium encode virulence factors and a Type III secretion system through the LEE pathogenicity island, and cause diarrhea and colitis. In vivo, C. rodentium causes infectious colitis, characterized by neutrophil and T cell infiltration into the lamina propria, transient increases in IL-22, epithelial barrier breakdown, crypt hyperplasia (an indicator of repair), and dissemination of bacteria throughout the body. […] Thus, indole derivatives, produced via commensal E. coli TnaA, mitigate pathogen infection. ICA was administered to mice that were infected with C. rodentium.
# [4] = test system: radiation-induced enteritis in mice; test: Radiation enteritis: 12Gy TBI without BM transplant
# From the text: Mice were subjected to 12Gy TBI without BM transplant, a lethal model in which most animals succumb to radiation-induced enteritis by about 7 days post-irradiation (p.i.), as opposed to hematopoietic failure at about 14 days p.i. […] (FIG. 5C). Thus, ICA reduced the death rate of both colonic and hematopoietic stem cells. […] While reduced intestinal damage and improved repair likely accounts at least in part for initial improvement in GvHD animals, additional effects on immune tolerance were also evident, but only over very long periods of administration (>3 months).
# [5] = ICA-treated recipients of TCD-BM+T cells
# [6] = mice infected with C. rodentium
compound,measurement,setting,value
"O=Cc1c[nH]c2ccccc12 [ICA, indole-3-carboxaldehyde]",survival of recipients of TCD-BM+T cells,"[1]; 100 mg/kg/day ICA oral gavage, at day 52, p=0.009",20%
same,survival of recipients of TCD-BM+T cells,"[1]; 150 mg/kg/day ICA oral gavage, p<0.001",83%
same,levels of inflammatory cytokines,[1]; [5],decreased levels of inflammatory cytokines
same,thymopoiesis,[1]; [5],improved thymopoiesis
same,GvHD activity of recovered T cells in secondary B10.BR recipients,[1]; T cells recovered at day 62 from ICA-treated recipients,lack of GvHD activity
same,proliferation of CFSE-stained T cells in secondary transplant,"[1]; T cells recovered at day 62 from ICA-treated recipients, secondary B10.BR recipients",reduced proliferation
same,"GvHD mortality / survival, in words","[1]; daily doses of ICA, 100 or 150 mg/kg/day",improved survival in a dose-dependent manner; also recorded: reduces GvHD mortality in a dose-dependent manner
same,engraftment by allogeneic donor bone marrow,[1]; fed to transplant recipients for the first few weeks after transplant,allows normal engraftment
same,tolerability / toxicity,[1]; recipients of BM grafts without GvHD-causing T-cells,well tolerated without serious toxicity
same,"GvHD pathology, histological analysis of colonic tissue",[1]; vs vehicle-treated control animals,marked reduction of GvHD pathology
same,bacterial colonization of mesenteric lymph nodes (MLN),"[1]; vs vehicle-treated control animals, p<0.01",decreased bacterial colonization; also recorded: reduce bacterial colonization
same,bacterial dissemination to mesenteric lymph nodes,[2]; ICA p.o. 150 mg/kg QD,abrogated
same,colon damage,[2]; ICA p.o. 150 mg/kg QD,abrogated
same,effect on liver GvHD,[2]; ICA p.o. 150 mg/kg QD,without effect
same,animals in which weight loss and death were prevented,"[2]; ICA p.o. 150 mg/kg QD, animals receiving TCDBM+T cells",90%
same,tolerance of donor C57Bl/6 T cells to B10.BR antigens,[2]; after long-term treatment (50 days),irreversibly and permanently tolerant
same,response of donor T cells to allo-antigens other than B10.BR or C57Bl/6,"[2]; after long-term treatment (50 days), upon secondary transplantation",remain responsive
same,survival of mice with transplanted allogeneic T cells,[2]; untreated animals all succumbed to GvHD,90%
same,survival,"[3]; ICA 150 mg/kg/d p.o., C. rodentium infected MyD88−/− mice, compared to vehicle",enhances survival
same,barrier integrity,[3]; [6],maintained barrier integrity
same,survival,[3]; [6],prolonged survival
same,mean survival time,"[4]; 12Gy TBI without BM transplant, extended from 7 days",12 days p.i.
same,apoptotic cells in the colon,[4]; at 6 hr p.i.,fewer apoptotic cells; also recorded: decrease
same,hematopoietic cells in the marrow,[4]; at 4 days p.i.,increased numbers; also recorded: enhances survival of hematopoietic progenitors
same,"survival from radiation, in words",[4]; no BM transplant,promotes survival
